A word on the IC50: it is the concentration that inhibits the measured activity by half.

Bounds are passed on as bounds.

Sequence of SMYD3 (Q9H7B4 whole entry): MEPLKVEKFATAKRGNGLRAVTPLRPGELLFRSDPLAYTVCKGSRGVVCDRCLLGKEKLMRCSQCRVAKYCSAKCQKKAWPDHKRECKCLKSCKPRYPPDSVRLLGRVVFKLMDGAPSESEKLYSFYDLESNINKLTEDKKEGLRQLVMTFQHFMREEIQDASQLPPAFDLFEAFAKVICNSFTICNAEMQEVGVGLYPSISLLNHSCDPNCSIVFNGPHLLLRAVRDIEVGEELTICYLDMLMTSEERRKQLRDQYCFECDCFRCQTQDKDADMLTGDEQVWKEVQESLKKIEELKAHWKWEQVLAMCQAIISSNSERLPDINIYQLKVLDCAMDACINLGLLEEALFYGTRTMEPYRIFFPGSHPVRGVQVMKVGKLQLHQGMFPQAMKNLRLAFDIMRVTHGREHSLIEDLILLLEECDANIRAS

The target in this assay is SMYD3 (Homo sapiens (Human), UniProt Q9H7B4). Put plainly: SMYD3 biochemical assay (SMYD3 enzyme assay on MEKK2 protein substrate, 3H-SAM scintillation proximity assay). To be noted: read-out: SMYD3 Biochem IC50. An outline of the steps:
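Detection used scintillation proximity beads to capture ³H-methylated GST-MEKK2 after quench with 100 uM final cold SAM. The reaction was started by SAM/MEKK2 addition after a 30 min RT compound–enzyme preincubation. Enzyme was tag-free full-length human SMYD3 from E. coli, in buffer of 25 mM Tris-Cl pH 8.0, 1 mM TCEP, 0.005% BSG, 0.005% Tween 20.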
On the technique in general: In a scintillation proximity assay essentially only radioactivity close to the scintillant gives light.
In the case of `N[C@H]1CC[C@H](NC(=O)CCCn2ccnc2)CC1` [compound 333, N-((1r,4r)-4-aminocyclohexyl)-4-(1H-imidazol-1-yl)butanamide], the IC50 was greater than 100 µM. As for `COc1ccc2cc(C(C)C(=O)NC(C)C3CCN(C(=O)[C@H](C)N)CC3)ccc2c1` (stereo partly drawn) [compound 334, N-(1-(1-(L-alanyl)piperidin-4-yl)ethyl)-2-(6-methoxynaphthalen-2-yl)propanamide], the half-inhibitory concentration (IC50) was found to be 34.9 µM. The value for `NCCC(=O)N[C@H]1CC[C@H](NC(=O)c2cc3cc(F)ccc3[nH]2)CC1` [compound 335, N-((1r,4r)-4-(3-aminopropanamido)cyclohexyl)-5-fluoro-1H-indole-2-carboxamide] was greater than 100 µM; that for `N[C@H]1CC[C@H](NC(=O)c2nc3ccccc3[nH]2)CC1` [compound 336, N-((1r,4r)-4-aminocyclohexyl)-1H-benzo[d]imidazole-2-carboxamide] was greater than 100 µM; that for `Cn1ccnc1C(=O)N[C@H]1CC[C@H](N)CC1` [compound 337, N-((1r,4r)-4-aminocyclohexyl)-1-methyl-1H-imidazole-2-carboxamide] was greater than 100 µM.

For the compound `CC(NC(=O)C1C[C@@H]2C=C[C@H]1C2)C1CCN(C(=O)[C@H](C)N)CC1` (stereo partly drawn) [compound 338, (1r,4r)-N-(1-(1-(L-alanyl)piperidin-4-yl)ethyl)bicyclo[2.2.1]hept-5-ene-2-carboxamide], the 50% inhibitory concentration (IC50) is greater than 100 µM. The value for `Cc1ccncc1C(=O)N[C@H]1CC[C@H](N)CC1` [compound 339, N-((1r,4r)-4-aminocyclohexyl)-4-methylnicotinamide] was greater than 100 µM; that for `Cc1cccc(Cn2nc(C(C)(C)C)cc2C(=O)N[C@H]2CC[C@H](NC(=O)CCN)CC2)c1` [compound 340, N-((1r,4r)-4-(3-aminopropanamido)cyclohexyl)-3-(tert-butyl)-1-(3-methylbenzyl)-1H-pyrazole-5-carboxamide] was greater than 100 µM; that for `Cc1cccc(Cn2nc(C(C)(C)C)cc2C(=O)N[C@H]2CC[C@H](N)CC2)c1` [compound 341, N-((1r,4r)-4-aminocyclohexyl)-3-(tert-butyl)-1-(3-methylbenzyl)-1H-pyrazole-5-carboxamide] was greater than 100 µM.

With `Cc1cccc2cc(C(=O)N[C@H]3CC[C@H](NC(=O)CCN)CC3)[nH]c12` [compound 342, N-((1r,4r)-4-(3-aminopropanamido)cyclohexyl)-7-methyl-1H-indole-2-carboxamide], the IC50 amounted to 37.7 µM. Take `Cc1cccc2cc(C(=O)N[C@H]3CC[C@H](N)CC3)[nH]c12` [compound 343, N-((1r,4r)-4-aminocyclohexyl)-7-methyl-1H-indole-2-carboxamide]: the IC50 worked out at 68.5 µM. As to `Cc1cncc(C(=O)N[C@H]2CC[C@H](NC(=O)CCN)CC2)c1` [compound 344, N-((1r,4r)-4-(3-aminopropanamido)cyclohexyl)-5-methylnicotinamide], the IC50 was found to be 36.4 µM. As to `Cc1cncc(C(=O)N[C@H]2CC[C@H](N)CC2)c1` [compound 345, N-((1r,4r)-4-aminocyclohexyl)-5-methylnicotinamide], the IC50 was 50.7 µM.

As to `Cc1ccc(C(=O)N[C@H]2CC[C@H](N)CC2)cn1` [compound 346, N-((1r,4r)-4-aminocyclohexyl)-6-methylnicotinamide], the IC50 was greater than 100 µM. Take `Cc1nscc1C(=O)N[C@H]1CC[C@H](NC(=O)CCN)CC1` [compound 347, N-((1r,4r)-4-(3-aminopropanamido)cyclohexyl)-3-methylisothiazole-4-carboxamide]: the IC50 was greater than 100 µM. For `Cc1nscc1C(=O)N[C@H]1CC[C@H](N)CC1` [compound 348, N-((1r,4r)-4-aminocyclohexyl)-3-methylisothiazole-4-carboxamide] the value was greater than 100 µM; for `Cn1ccc(C(=O)N[C@H]2CC[C@H](NC(=O)CCN)CC2)n1` [compound 349, N-((1r,4r)-4-(3-aminopropanamido)cyclohexyl)-1-methyl-1H-pyrazole-3-carboxamide], greater than 100 µM. The value for `Cn1ccc(C(=O)N[C@H]2CC[C@H](N)CC2)n1` [compound 350, N-((1r,4r)-4-aminocyclohexyl)-1-methyl-1H-pyrazole-3-carboxamide] was greater than 100 µM; that for `Cn1nc(C(C)(C)C)cc1C(=O)N[C@H]1CC[C@H](NC(=O)CCN)CC1` [compound 351, N-((1r,4r)-4-(3-aminopropanamido)cyclohexyl)-3-(tert-butyl)-1-methyl-1H-pyrazole-5-carboxamide] was greater than 100 µM. The value for `Cn1nc(C(C)(C)C)cc1C(=O)N[C@H]1CC[C@H](N)CC1` [compound 352, N-((1r,4r)-4-aminocyclohexyl)-3-(tert-butyl)-1-methyl-1H-pyrazole-5-carboxamide] was greater than 100 µM; that for `COc1cccc(C(=O)N[C@H]2CC[C@H](NC(=O)CCN)CC2)n1` [compound 353, N-((1r,4r)-4-(3-aminopropanamido)cyclohexyl)-6-methoxypicolinamide] was greater than 100 µM; that for `COc1cccc(C(=O)N[C@H]2CC[C@H](N)CC2)n1` [compound 354, N-((1r,4r)-4-aminocyclohexyl)-6-methoxypicolinamide] was greater than 100 µM. With `COc1cncc(C(=O)N[C@H]2CC[C@H](NC(=O)CCN)CC2)n1` [compound 355, N-((1r,4r)-4-(3-aminopropanamido)cyclohexyl)-6-methoxypyrazine-2-carboxamide], the IC50 was greater than 100 µM. In the case of `COc1cncc(C(=O)N[C@H]2CC[C@H](N)CC2)n1` [compound 356, N-((1r,4r)-4-aminocyclohexyl)-6-methoxypyrazine-2-carboxamide], the IC50 was greater than 100 µM.

With `CC(NC(=O)c1ccc(N)cn1)C1CCN(C(=O)[C@H](C)N)CC1` (stereo partly drawn) [compound 357, N-(1-(1-(L-alanyl)piperidin-4-yl)ethyl)-5-aminopicolinamide], the IC50 is greater than 100 µM.

Turning to `N[C@H]1CC[C@H](NC(=O)c2ccc(Cl)cc2C(F)(F)F)CC1` [compound 358, N-((1r,4r)-4-aminocyclohexyl)-4-chloro-2-(trifluoromethyl)benzamide], the IC50 is greater than 100 µM. The value for `N[C@H]1CC[C@H](NC(=O)c2cncs2)CC1` [compound 359, N-((1r,4r)-4-aminocyclohexyl)thiazole-5-carboxamide] was greater than 100 µM; that for `N[C@H]1CC[C@H](NC(=O)c2c[nH]c3ccccc23)CC1` [compound 360, N-((1r,4r)-4-aminocyclohexyl)-1H-indole-3-carboxamide] was greater than 100 µM. As to `NCCC(=O)N[C@H]1CC[C@H](NC(=O)c2ccc(O)cn2)CC1` [compound 361, N-((1r,4r)-4-(3-aminopropanamido)cyclohexyl)-5-hydroxypicolinamide], the IC50 is greater than 100 µM. On to `N[C@H]1CC[C@H](NC(=O)Cc2cc(F)cc(F)c2)CC1` [compound 362, N-((1r,4r)-4-aminocyclohexyl)-2-(3,5-difluorophenyl)acetamide], for which the IC50 was greater than 100 µM.

As for `NCCC(=O)N[C@H]1CC[C@H](NC(=O)Cc2cccnc2)CC1` [compound 363, 3-amino-N-((1r,4r)-4-(2-(pyridin-3-yl)acetamido)cyclohexyl)propanamide], the IC50 is greater than 100 µM. The value for `NCCC(=O)N[C@H]1CC[C@H](NC(=O)Cc2cncnc2)CC1` [compound 364, 3-amino-N-((1r,4r)-4-(2-(pyrimidin-5-yl)acetamido)cyclohexyl)propanamide] was greater than 100 µM; that for `N[C@H]1CC[C@H](NC(=O)Cc2cncnc2)CC1` [compound 365, N-((1r,4r)-4-aminocyclohexyl)-2-(pyrimidin-5-yl)acetamide] was greater than 100 µM; that for `NCCC(=O)N[C@H]1CC[C@H](NC(=O)Cn2ccnc2)CC1` [compound 366, N-((1r,4r)-4-(2-(1H-imidazol-1-yl)acetamido)cyclohexyl)-3-aminopropanamide] was greater than 100 µM. The value for `N[C@H]1CC[C@H](NC(=O)c2nc3ccccc3s2)CC1` [compound 367, N-((1r,4r)-4-aminocyclohexyl)benzo[d]thiazole-2-carboxamide] was greater than 100 µM. Consider `CC(NC(=O)c1ccc2cc[nH]c2c1)C1CCN(C(=O)[C@H](C)N)CC1` (stereo partly drawn) [compound 368, N-(1-(1-(L-alanyl)piperidin-4-yl)ethyl)-1H-indole-6-carboxamide], for which the IC50 was 12.3 µM. For `COc1cccc2[nH]cc(C(=O)NC(C)C3CCN(C(=O)[C@H](C)N)CC3)c12` (stereo partly drawn) [compound 370, N-(1-(1-(L-alanyl)piperidin-4-yl)ethyl)-4-methoxy-1H-indole-3-carboxamide] the value was greater than 100 µM. For the compound `COc1cccc2[nH]cc(C(=O)N[C@H]3CC[C@H](NC(=O)CCN)CC3)c12` [compound 371, N-((1r,4r)-4-(3-aminopropanamido)cyclohexyl)-4-methoxy-1H-indole-3-carboxamide], the IC50 is greater than 100 µM. The value for `COc1cccc2[nH]cc(C(=O)N[C@H]3CC[C@H](N)CC3)c12` [compound 372, N-((1r,4r)-4-aminocyclohexyl)-4-methoxy-1H-indole-3-carboxamide] was greater than 100 µM.

Regarding `NCCC(=O)N[C@H]1CC[C@H](NC(=O)c2cnc3ccccc3n2)CC1` [compound 373, N-((1r,4r)-4-(3-aminopropanamido)cyclohexyl)quinoxaline-2-carboxamide], the IC50 is greater than 100 µM.

As for `NCCC(=O)N[C@H]1CC[C@H](NC(=O)c2nc3ccccc3[nH]2)CC1` [compound 374, N-((1r,4r)-4-(3-aminopropanamido)cyclohexyl)-1H-benzo[d]imidazole-2-carboxamide], the half-maximal inhibitory concentration (IC50) amounted to 86.6 µM. For the compound `NCCC(=O)N[C@H]1CC[C@H](NC(=O)CCCn2ccnc2)CC1` [compound 375, N-((1r,4r)-4-(3-aminopropanamido)cyclohexyl)-4-(1H-imidazol-1-yl)butanamide], the IC50 was greater than 100 µM.

For `NCCC(=O)N[C@H]1CC[C@H](NC(=O)c2ccnc(O)c2)CC1` [compound 376, N-((1r,4r)-4-(3-aminopropanamido)cyclohexyl)-2-hydroxyisonicotinamide], the IC50 is greater than 100 µM.

The values above are taken from patent US10266526B2, “Substituted 1,2,3-triazoles as SMYD inhibitors for treating cancer” (EPIZYME, INC., priority 2014, dated 2019).
